Each structure is given as a SMILES string.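 Results reflect a 48-hour exposure of cells in 96-well plates to compound at five concentrations. TGI: concentration producing complete growth inhibition.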 Bounds are passed on as bounds.

Data on eight molecules can be found in PubChem BioAssay (NCI).

Among the test systems are A498 renal; COLO 205 colon; SK-MEL-5 melanoma; 786-0 renal; RXF 393 renal; HS 578T breast; SR leukemia; NCI-H23 lung; HOP-62 NSCLC; NCI-H460 lung; MOLT-4 leukemia.
Holding throughout (assay): growth of human tumour cells (NCI), 48 h

Consider `COc1cc2[nH]c(-c3ccccc3)cc(=O)c2c(OC)c1OC`, for which the TGI with A498 renal, with COLO 205 colon, with SK-MEL-5 melanoma, in the experiment on 786-0 renal, in the experiment with RXF 393 renal and with HS 578T breast was more than 100 µM throughout. Besides, the TGI in the experiment on SR leukemia, in the experiment on NCI-H23 lung, with HOP-62 NSCLC, in the experiment on NCI-H460 lung and in the experiment with MOLT-4 leukemia was more than 100 µM in each case.
As for `Clc1ccc(/C(=C\c2ccccc2)Cn2ccnc2)cc1`, the TGI was 42.1 µM in the experiment on A498 renal; 28.6 µM in the experiment with COLO 205 colon; 25.6 µM with SK-MEL-5 melanoma; 38.5 µM with 786-0 renal; 42.2 µM in the experiment with RXF 393 renal; more than 100 µM with HS 578T breast. Besides, the TGI in the experiment on SR leukemia was more than 100 µM; in the experiment with NCI-H23 lung, more than 100 µM; in the experiment with HOP-62 NSCLC, 38.3 µM; with NCI-H460 lung, 44.8 µM; in the experiment with MOLT-4 leukemia, more than 100 µM.
Turning to `COC1C(O)C(O[C@H]2CC[C@@]3(C)C(CC[C@@H]4[C@@H]3CC[C@]3(C)[C@@H](C(C)OC5OC(CO)C(O)C(O)C5O)CC[C@]43O)C2)OC(C)C1OC1OC(CO)C(O)C(O)C1O` (stereo partly drawn), the TGI in the experiment with A498 renal, in the experiment with COLO 205 colon, in the experiment with SK-MEL-5 melanoma, in the experiment with 786-0 renal, with RXF 393 renal and in the experiment with HS 578T breast was more than 100 µM in each case. For the same molecule, the TGI in the experiment on SR leukemia, with NCI-H23 lung, in the experiment on HOP-62 NSCLC, in the experiment on NCI-H460 lung and in the experiment on MOLT-4 leukemia was more than 100 µM in each case.
Turning to `CC(C)C1=C(O)C2=C(C(=O)C1=O)C1(C)CCCC(C)(C)C1C(O)C2OC=O` (stereo not drawn), the TGI with A498 renal came out at 35.1 µM; with COLO 205 colon, 12.5 µM; in the experiment on SK-MEL-5 melanoma, 18.9 µM; in the experiment with 786-0 renal, 19 µM; with RXF 393 renal, 20.2 µM; with HS 578T breast it was 98.8 µM. Further, the TGI is 6.52 µM in the experiment on SR leukemia; 20.5 µM with NCI-H23 lung; more than 100 µM with HOP-62 NSCLC; 12.7 µM in the experiment with NCI-H460 lung; 6.91 µM in the experiment on MOLT-4 leukemia.
Turning to `C(=C\c1ccccc1)/COc1ccccc1C(N1CCOCC1)n1nc2ccccc2n1` (stereo not drawn), the TGI in the experiment on A498 renal was more than 100 µM; with COLO 205 colon it was 36.6 µM; with SK-MEL-5 melanoma, 13.8 µM; with 786-0 renal, 15.8 µM; with RXF 393 renal, 19.4 µM; with HS 578T breast, 41.2 µM. Besides, the TGI was 5.49 µM in the experiment on SR leukemia; 24.6 µM in the experiment on NCI-H23 lung; 20.4 µM in the experiment with HOP-62 NSCLC; more than 51.3 µM with NCI-H460 lung; 13.2 µM in the experiment on MOLT-4 leukemia.
For the molecule `CN(C)c1cccc2c1C(=O)C=CC21c2ccc(N(C)C)c3c(N(C)C)ccc(c23)C(c2ccccc2)C1c1ccccc1` (stereo not drawn), the TGI in the experiment with A498 renal was determined as 22 µM; in the experiment on COLO 205 colon it was 25.7 µM; in the experiment on SK-MEL-5 melanoma it was 27.5 µM; in the experiment with 786-0 renal, 22.3 µM; in the experiment on RXF 393 renal it was 36.3 µM; in the experiment with HS 578T breast, 45.3 µM. For the same molecule, the TGI came out at 55.1 µM with SR leukemia; 75.3 µM in the experiment with NCI-H23 lung; 39.2 µM with HOP-62 NSCLC; 61.5 µM in the experiment on NCI-H460 lung; 6.82 µM in the experiment on MOLT-4 leukemia.
In the case of `O=C1C2=Nc3ccccc3C(O)(C(=O)O)N2c2ccccc21` (stereo not drawn), the TGI was 80.9 µM in the experiment on A498 renal; 36.6 µM with COLO 205 colon; 27.5 µM in the experiment with SK-MEL-5 melanoma; more than 100 µM in the experiment with 786-0 renal; more than 100 µM in the experiment with RXF 393 renal; more than 100 µM in the experiment on HS 578T breast. Moreover, the TGI with SR leukemia was more than 100 µM; in the experiment with NCI-H23 lung it was 54.3 µM; in the experiment with HOP-62 NSCLC, more than 100 µM; in the experiment on NCI-H460 lung, 39.3 µM; in the experiment with MOLT-4 leukemia, more than 100 µM.
For `CC(C)[Si](OC/C(=C/COC(C)(C)C)[C@H]1CC=C(C(=O)c2ccccc2N2CN(C)C(=O)N(C)C2)C1)(C(C)C)C(C)C`, the TGI with A498 renal came out at 34.5 µM; with COLO 205 colon, 31 µM; in the experiment with SK-MEL-5 melanoma, 23.1 µM; in the experiment on 786-0 renal, 17.9 µM; in the experiment with RXF 393 renal, 17.5 µM; in the experiment with HS 578T breast, 13.2 µM. Besides, the TGI in the experiment with SR leukemia was 5.95 µM; in the experiment with NCI-H23 lung it was 30 µM; with HOP-62 NSCLC, 31.5 µM; with NCI-H460 lung it was 28.7 µM; in the experiment on MOLT-4 leukemia, 1.67 µM.
